Assay results taken from ChEMBL document CHEMBL5154709, “Tetrazole derivatives bearing benzodiazepine moiety-synthesis and action mode against virulence of Candida albicans” (Eur J Med Chem, 2022).
In brackets after ≈: the same amount, converted by molar mass. Activity calls are given as the source filed them. The rule behind the calls is not given here.

Key:
[1] = system: Candida albicans; experiment: Antifungal activity against Candida albicans assessed as inhibition of fungal growth measured after 48 hrs in presence of exogenous ergosterol by M27-A3 based broth microdilution; assay type: functional
[2] = system: Candida albicans; experiment: Effect on HSP90 expression in Candida albicans cnb1delta/CNB1 mutant assessed as decrease in relative expression of HSP90 gene level at 2 ug/ml incubated for 18 hrs by RT-PCR analysis; assay type: functional; conditions: dose 2.0 µg/ml
[3] = system: Candida albicans; experiment: Induction of reactive oxygen species generation in Candida albicans BWP17 assessed as increase in ROS level at 16 ug/ml incubated for 18 hrs by DCFH-DA staining based flow cytometric analysis (reference value: 7.2+/- 0.2%); assay type: functional; conditions: dose 16 µg/ml
[4] = system: Candida albicans; experiment: Induction of cell cycle arrest in Candida albicans SC5314 assessed as accumulation of cells in G0/G1 phase at 16 ug/ml incubated fro 18 hrs by PI staining based flow cytometry method; assay type: functional, organism-based; conditions: dose 16.0 µg/ml
[5] = system: Candida albicans; experiment: Antifungal activity against Candida albicans SC5314 assessed as inhibition of fungal growth at 0.5 ug/ml incubated for 18 hrs by M27-A3 based microdilution method relative to control; assay type: functional
[6] = system: Candida albicans; experiment: Antifungal activity against Candida albicans SC5314 assessed as inhibition of fungal growth at 4 ug/ml incubated for 48 hrs by M27-A3 based microdilution method relative to control; assay type: functional
[7] = system: Candida albicans; experiment: Antifungal activity against Candida albicans SC5314 assessed as inhibition of fungal growth at 0.25 ug/ml incubated for 48 hrs by M27-A3 based microdilution method relative to control; assay type: functional
[8] = system: Candida albicans; experiment: Effect on HSP90 expression in Candida albicans cnb1delta/cnb1delta mutant assessed as fold increase in relative expression of HSP90 gene level at 2 ug/ml incubated for 18 hrs in presence of calcium chloride by RT-PCR analysis; assay type: functional; conditions: dose 2.0 µg/ml
[9] = system: Candida albicans; experiment: Antifungal activity against Candida albicans SC5314 assessed as inhibition of fungal growth at 8 ug/ml incubated for 18 hrs by M27-A3 based microdilution method relative to control; assay type: functional
[10] = Toxicity in Galleria mellonella larvae assessed as melanization of larvae at 16 ug/ml measured every 24 hrs upto 5 days relative to control; conditions: 120 h, at 16 µg/mL, time < 5 day
[11] = system: Candida albicans; experiment: Antifungal activity against Candida albicans assessed as inhibition of fungal growth measured after 48 hrs by M27-A3 based broth microdilution; assay type: functional
[12] = system: Candida albicans; experiment: Antifungal activity against Candida albicans SC5314 assessed as inhibition of fungal growth at 2 ug/ml incubated for 18 hrs by M27-A3 based microdilution method relative to control; assay type: functional
[13] = system: Candida albicans; experiment: Induction of apoptosis in Candida albicans SC5314 protoplast cells assessed as necrotic cells at 16 ug/ml incubated for 18 hrs by PI/Annexin V staining based flow cytometry assay; assay type: functional; conditions: dose 16 µg/ml
[14] = system: Candida albicans; experiment: Induction of macrophage-mediated Candida albicans SC5314 phagocytosis assessed as change in hyphae properties at 16 ug/ml incubated for 18 hrs in presence of mouse RAW264.7 macrophages by PI/Acridine orange double staining based confocal laser scanning microscopic analysis; assay type: functional; conditions: dose 16.0 µg/ml
[15] = system: Candida albicans; experiment: Antifungal activity against Candida albicans SC5314 assessed as inhibition of fungal growth at 0.03125 ug/ml incubated for 48 hrs by M27-A3 based microdilution method relative to control; assay type: functional
[16] = Toxicity in Galleria mellonella larvae assessed as change in morphology at 16 ug/ml measured after 5 days by Hematoxylin and eosin staining; conditions: 120 h, dose 16 µg/ml, time 5 day
[17] = system: Candida albicans; experiment: Fungicidal activity against Candida albicans SC5314 assessed as inhibition of fungal growth incubated for 48 hrs by M27-A3 based microdilution method; assay type: functional
[18] = system: Candida albicans; experiment: In vivo antifungal activity against Candida albicans SC5314 infected in Galleria mellonella larvae assessed as prevention of candidiasis at 16 ug/ml administered 1 hr post infection measured after 5 days by Hematoxylin and eosin staining; assay type: functional, organism-based; conditions: dose 16.0 µg/ml, time 5.0 day
[19] = system: Candida albicans; experiment: Antifungal against Candida albicans cnb1delta/cnb1delta mutant biofilm assessed as oxidative stress by measuring appearance of spherical cells at 16 ug/ml incubated for 18 hrs by PI/acridine orange double staining based confocal laser scanning microscopic analysis; assay type: functional, organism-based; conditions: dose 16.0 µg/ml
[20] = system: Candida albicans; experiment: Induction of reactive oxygen species generation in Candida albicans cnb1delta/cnb1delta mutant assessed as increase in ROS level at 16 ug/ml incubated for 18 hrs by DCFH-DA staining based flow cytometric analysis (reference value: 4.7+/- 5.9%); assay type: functional; conditions: dose 16 µg/ml
[21] = system: Candida albicans; experiment: Induction of apoptosis in Candida albicans SC5314 non-protoplast cells assessed as necrotic cells at 16 ug/ml incubated for 18 hrs by PI/Annexin V staining based flow cytometry assay; assay type: functional; conditions: dose 16 µg/ml

O=C1CN=C(c2ccccc2Br)c2cc(F)ccc2N1CCCn1nnc(-c2ccccc2Cl)n1
MIC [1]: 2.56 µg/mL | Activity [2]: Active | Activity [3]: 3.7% | Activity [4]: Active | inhibition at 0.5 µg/mL [5]: 99.2% | inhibition at 4 µg/mL [6]: 99.3% | inhibition at 0.25 µg/mL [7]: 100% | fold change (FC) [8]: 4 | inhibition at 8 µg/mL [9]: 99.1% | Activity [10]: 7% | MIC [11]: 64 µg/mL (≈ 116 µM) | inhibition at 2 µg/mL [12]: 100% | Activity [13]: 78.5% | Activity [14]: Active | inhibition at 0.03125 µg/mL [15]: 100% | Activity [16]: Non-Toxic | inhibition (INH) [17]: 99.6% | Activity [18]: Active | Activity [19]: Active | Activity [20]: 2.95% | Activity [21]: 81.37%
